Earlier results, collected in patent US7884104B2, “Aminopiperidines as dipeptidyl peptidase-IV inhibitors for the treatment or prevention of diabetes” (Merck Sharp & Dohme Corp., priority 2004, dated 2011).

Key:
DPP-IV = target: T1, DPP-IV (Homo sapiens, UniProt P27487)
T1 construct: GRF is rapidly degraded in plasma to GRF[344]; host or cells: plasma (endogenous enzyme activity)

hematopoiesis = conditions: mouse, cyclophosphamide-induced neutropenia
cardiac allograft = conditions: rats; doubled from day 7 to day 14

T1 sequence (P27487 39-766 limits assumed, species assumed): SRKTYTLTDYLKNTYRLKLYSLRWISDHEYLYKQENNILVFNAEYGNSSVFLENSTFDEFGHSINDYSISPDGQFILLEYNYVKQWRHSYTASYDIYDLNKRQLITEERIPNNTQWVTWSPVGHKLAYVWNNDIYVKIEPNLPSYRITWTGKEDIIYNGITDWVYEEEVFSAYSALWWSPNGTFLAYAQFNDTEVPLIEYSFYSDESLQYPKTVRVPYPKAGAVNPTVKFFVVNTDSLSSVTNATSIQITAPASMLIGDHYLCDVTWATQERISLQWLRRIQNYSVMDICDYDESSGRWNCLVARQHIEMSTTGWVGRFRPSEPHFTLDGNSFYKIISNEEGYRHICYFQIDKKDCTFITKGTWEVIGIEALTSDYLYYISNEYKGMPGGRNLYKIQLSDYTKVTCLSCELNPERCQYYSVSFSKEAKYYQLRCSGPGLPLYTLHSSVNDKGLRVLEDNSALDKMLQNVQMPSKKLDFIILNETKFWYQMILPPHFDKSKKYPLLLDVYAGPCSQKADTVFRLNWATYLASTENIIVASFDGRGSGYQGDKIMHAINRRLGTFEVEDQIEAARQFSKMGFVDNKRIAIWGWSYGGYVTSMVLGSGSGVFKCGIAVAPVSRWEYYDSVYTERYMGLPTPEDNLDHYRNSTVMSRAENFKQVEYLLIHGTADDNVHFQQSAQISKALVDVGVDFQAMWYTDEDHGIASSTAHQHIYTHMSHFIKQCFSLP

## diprotin A
DPP-IV
  effect on degradation of GRF in plasma: prevented

## CC(C)[C@H](N)C(=O)N1CCC[C@H]1B(O)O [Val-Boro-Pro]
hematopoiesis
  effect on hematopoiesis: stimulated hematopoiesis

## CC(C)N1CCC(c2ccccc2)(c2ccccc2)CC1 [Prodipine, Pro-Pro-diphenyl-phosphonate]
Cardiac allograft
  cardiac allograft survival: 14 day
